Results taken from patent publication US20060111443A1, “Preventive therapeutic composition for muscular fatigue, pulled muscle and disease attributed thereto” (priority 2002, published 2006).

How the values were obtained:
healthy subjects = assay: Analyzing test of blood components (myoglobin, lactic acid, CPK) after exercise stress; format: in vivo, human; details: value just after exercise stress = 100%
Experimental: To 20 healthy subjects (14 males and 6 females), was given an exercise stress of 15 km running within a limited time of 2 hours. The 20 subjects who run the whole distance within the limited time were divided into 2 groups by the arrival order, that is, one group consisting of 10 subjects of odd-numbered order of arrival (8 male subjects and 2 female subjects) and the other group consisting of 10 subjects of even-numbered order of arrival (6 male subjects and 4 female subjects). To the group of odd numbers was administered tranilast (hereinafter referred to as Medicine administration group) and to the group of even numbers was not administered (hereinafter referred to as Control group). […]
In each group, bloods were collected at a time of just before, just after, 3 days and 7 days after the exercise stress. And, blood components considered relevant to muscular fatigue and muscular damage (myoglobin, lactic acid and CPK) were analyzed, and relative degrees of changes of blood concentrations which are converted into relative values to the concentrations just after the exercise stress set as 100% were calculated.

[1] = repeated administration of 300 mg a day; cited from earlier work

## COc1ccc(/C=C/C(=O)Nc2ccccc2C(=O)O)cc1OC [tranilast, N-(3,4-dimethoxycinnnamoyl)anthranilic acid]
Healthy subjects; 3 days after exercise stress, control 160% or more
  relative degree of change of blood concentration of CPK: about 110%
Healthy subjects; 7 days after exercise stress, control about 90%
  relative degree of change of blood concentration of CPK: about 60%
[1]
  time at which tranilast concentration in blood reached the maximum: 2 days
